Data reported in ChEMBL document CHEMBL1137289, “Structure-activity relationships of novel antibacterial translation inhibitors: 3,5-diamino-piperidinyl triazines” (Bioorg Med Chem Lett, 2006).
Converted amounts (≈) assume the structure as drawn.

Experiments:
Escherichia coli [1] = assay: Inhibition of protein synthesis in Escherichia coli S30 extracts by coupled transcription-translation assay; assay type: functional; conditions: Escherichia coli
Escherichia coli [2] = assay: microbe, parasite or virus in culture; conditions: ATCC 25922
Description: Antibacterial activity against Escherichia coli ATCC 25922

Escherichia coli [3] = assay: Antibacterial activity against wild type impermeable Escherichia coli LMG194; assay type: functional
Staphylococcus aureus = assay: microbe, parasite or virus in culture; conditions: ATCC 25923
Description: Antibacterial activity against Staphylococcus aureus ATCC 25923

Pseudomonas aeruginosa = assay: Antibacterial activity against Pseudomonas aeruginosa ATCC 27853; assay type: functional
[4] = Cytotoxicity against CEM T cells after 72 hrs by proliferation assay; assay type: cell-based, CCRF-CEM; conditions: human, CCRF-CEM (CEM) T cells

SMILES | IC50 (Escherichia coli [1]) | MIC (Escherichia coli [2]) | MIC (Escherichia coli [3]) | MIC (Staphylococcus aureus) | MIC (Pseudomonas aeruginosa) | CC50 at 72 h [4]
N[C@@H]1C[C@H](N)CN(c2nc(Nc3cccc(NC(=O)c4cccc(O)c4O)c3)nc(N3C[C@H](N)C[C@H](N)C3)n2)C1 | 4 µM | 8 µg/mL (≈ 14.6 µM) | – | – | – | –
N[C@@H]1C[C@H](N)CN(c2nc(Nc3ccc(S(N)(=O)=O)cc3)nc(N3C[C@H](N)C[C@H](N)C3)n2)C1 | 4 µM | > 64 µg/mL | > 64 µg/mL | > 64 µg/mL | – | –
Cc1cc(C)cc(Nc2nc(N3C[C@H](N)C[C@H](N)C3)nc(N3C[C@H](N)C[C@H](N)C3)n2)c1 | 13 µM | 64 µg/mL (≈ 150 µM) | > 64 µg/mL | 32 µg/mL (≈ 75 µM) | – | –
N[C@@H]1C[C@H](N)CN(c2nc(Nc3ccc(NC(=O)c4ccc(Cl)cc4)c(O)c3)nc(N3C[C@H](N)C[C@H](N)C3)n2)C1 | 7 µM | 2 µg/mL (≈ 3.52 µM) | – | 16 µg/mL (≈ 28.2 µM) | ≤ 0.5 µg/mL | 180 µM
N[C@@H]1C[C@H](N)CN(c2nc(Nc3ccc(C(=O)CC(=O)Nc4ccc(F)c(F)c4)cc3)nc(N3C[C@H](N)C[C@H](N)C3)n2)C1 | 9 µM | 4 µg/mL (≈ 6.72 µM) | – | 16 µg/mL (≈ 26.9 µM) | 1 µg/mL (≈ 1.68 µM) | 179 µM
N[C@@H]1C[C@H](N)CN(c2nc(Nc3ccc(C(=O)CC(=O)Nc4ccc(-c5ccccc5)cc4)cc3)nc(N3C[C@H](N)C[C@H](N)C3)n2)C1 | 6 µM | 4 µg/mL (≈ 6.29 µM) | – | 16 µg/mL (≈ 25.2 µM) | ≤ 1 µg/mL | 24 µM
N[C@@H]1C[C@H](N)CN(c2nc(Nc3ccc(C(=O)Nc4ccc5[nH]cnc5c4)c(O)c3)nc(N3C[C@H](N)C[C@H](N)C3)n2)C1 | 4 µM | 8 µg/mL (≈ 13.9 µM) | – | – | – | –
N[C@@H]1C[C@H](N)CN(c2nc(Nc3ccc(C(=O)N4CCc5cc(Br)ccc54)c(O)c3)nc(N3C[C@H](N)C[C@H](N)C3)n2)C1 | 9 µM | 2 µg/mL (≈ 3.13 µM) | – | – | – | –
N[C@@H]1C[C@H](N)CN(c2nc(Nc3ccc(C(=O)CC(=O)Nc4ccc5c(c4)OC(F)(F)O5)cc3)nc(N3C[C@H](N)C[C@H](N)C3)n2)C1 | 6 µM | 4 µg/mL (≈ 6.25 µM) | – | 8 µg/mL (≈ 12.5 µM) | 1 µg/mL (≈ 1.56 µM) | 146 µM
N[C@@H]1C[C@H](N)CN(c2nc(Nc3ccc4[nH]cnc4c3)nc(N3C[C@H](N)C[C@H](N)C3)n2)C1 | 14 µM | 64 µg/mL (≈ 146 µM) | – | – | – | –
N[C@@H]1C[C@H](N)CN(c2nc(NC3CCNC3)nc(N3C[C@H](N)C[C@H](N)C3)n2)C1 (stereo partly drawn) | 36 µM | – | – | – | – | –
N[C@@H]1C[C@H](N)CN(c2nc(Nc3ccncc3)nc(N3C[C@H](N)C[C@H](N)C3)n2)C1 | 32 µM | – | – | – | – | –
N[C@@H]1C[C@H](N)CN(c2nc(Nc3ccccc3F)nc(N3C[C@H](N)C[C@H](N)C3)n2)C1 | 5 µM | > 64 µg/mL | > 64 µg/mL | > 64 µg/mL | – | –
Cc1ccc2nc(-c3ccc(Nc4nc(N5C[C@H](N)C[C@H](N)C5)nc(N5C[C@H](N)C[C@H](N)C5)n4)cc3)sc2c1 | 10 µM | 2 µg/mL (≈ 3.66 µM) | – | 2 µg/mL (≈ 3.66 µM) | – | 33 µM
CN(C)c1ccc(Nc2nc(N3C[C@H](N)C[C@H](N)C3)nc(N3C[C@H](N)C[C@H](N)C3)n2)cc1 | 11 µM | > 64 µg/mL | > 64 µg/mL | > 64 µg/mL | – | –
N[C@@H]1C[C@H](N)CN(c2nc(N3C[C@H](N)C[C@H](N)C3)nc(N3CCc4cc(Br)ccc43)n2)C1 | 5 µM | 16 µg/mL (≈ 31.8 µM) | – | – | – | –
N[C@@H]1C[C@H](N)CN(c2nc(NO)nc(N3C[C@H](N)C[C@H](N)C3)n2)C1 | 45 µM | – | – | – | – | –
COc1ccc(Nc2nc(N3C[C@H](N)C[C@H](N)C3)nc(N3C[C@H](N)C[C@H](N)C3)n2)cc1 | 14 µM | > 64 µg/mL | > 64 µg/mL | > 64 µg/mL | – | –
Nc1nc(N2C[C@H](N)C[C@H](N)C2)nc(N2C[C@H](N)C[C@H](N)C2)n1 | 92 µM | – | – | – | – | –
N[C@@H]1C[C@H](N)CN(c2nc(Nc3ccc(Cl)c(Cl)c3)nc(N3C[C@H](N)C[C@H](N)C3)n2)C1 | 7 µM | 32 µg/mL (≈ 68.5 µM) | – | – | – | –
N[C@@H]1C[C@H](N)CN(c2nc(N3CCNCC3)nc(N3C[C@H](N)C[C@H](N)C3)n2)C1 | 23 µM | – | – | – | – | –
N[C@@H]1C[C@H](N)CN(c2nc(Nc3ccc(-c4ccccc4)cc3)nc(N3C[C@H](N)C[C@H](N)C3)n2)C1 | 9 µM | 16 µg/mL (≈ 33.7 µM) | – | – | – | –

SMILES | IC50 (Escherichia coli [1]) | MIC (Escherichia coli [2]) | MIC (Escherichia coli [3]) | MIC (Staphylococcus aureus) | MIC (Pseudomonas aeruginosa) | CC50 at 72 h [4]
N[C@@H]1C[C@H](N)CN(c2nc(Nc3ccc(C(=O)CC(=O)Nc4cccc(Br)c4)cc3)nc(N3C[C@H](N)C[C@H](N)C3)n2)C1 | 5 µM | 2 µg/mL (≈ 3.13 µM) | – | 16 µg/mL (≈ 25.1 µM) | ≤ 1 µg/mL | 124 µM
N[C@@H]1C[C@H](N)CN(c2nc(Nc3ccc(NC(=O)c4ccc5ccccc5c4O)cc3)nc(N3C[C@H](N)C[C@H](N)C3)n2)C1 | 10 µM | 1 µg/mL (≈ 1.71 µM) | – | 2 µg/mL (≈ 3.43 µM) | 1 µg/mL (≈ 1.71 µM) | 140 µM
CCN(CC)c1nc(N2C[C@H](N)C[C@H](N)C2)nc(N2C[C@H](N)C[C@H](N)C2)n1 | 180 µM | – | – | – | – | –
N[C@@H]1C[C@H](N)CN(c2nc(Nc3ccc(C(=O)Nc4ccc(Cl)c(Cl)c4)c(O)c3)nc(N3C[C@H](N)C[C@H](N)C3)n2)C1 | 10 µM | 2 µg/mL (≈ 3.32 µM) | – | – | – | –
Nc1ccc(Nc2nc(N3C[C@H](N)C[C@H](N)C3)nc(N3C[C@H](N)C[C@H](N)C3)n2)cc1 | 8 µM | – | – | – | – | –
CN(C)c1nc(N2C[C@H](N)C[C@H](N)C2)nc(N2C[C@H](N)C[C@H](N)C2)n1 | 290 µM | – | – | – | – | –
N[C@@H]1C[C@H](N)CN(c2nc(Nc3ccc(O)cc3)nc(N3C[C@H](N)C[C@H](N)C3)n2)C1 | 11 µM | > 64 µg/mL | > 64 µg/mL | > 64 µg/mL | – | –
N[C@@H]1C[C@H](N)CN(c2nc(NC3CCCCC3)nc(N3C[C@H](N)C[C@H](N)C3)n2)C1 | 63 µM | – | – | – | – | –
CNc1nc(N2C[C@H](N)C[C@H](N)C2)nc(N2C[C@H](N)C[C@H](N)C2)n1 | 62 µM | – | – | – | – | –
N[C@@H]1C[C@H](N)CN(c2nc(Nc3ccon3)nc(N3C[C@H](N)C[C@H](N)C3)n2)C1 | 9 µM | – | – | – | – | –
COc1cc(Nc2nc(N3C[C@H](N)C[C@H](N)C3)nc(N3C[C@H](N)C[C@H](N)C3)n2)ccc1NC(=O)c1ccc(Cl)cc1O | 8 µM | 4 µg/mL (≈ 6.69 µM) | – | – | – | –
COc1cccc(Nc2nc(N3C[C@H](N)C[C@H](N)C3)nc(N3C[C@H](N)C[C@H](N)C3)n2)c1NC(=O)c1ccc(Cl)cc1O | 30 µM | > 64 µg/mL | – | – | – | –
N[C@@H]1C[C@H](N)CN(c2nc(Nc3ccc(C(=O)CC(=O)Nc4ccccc4Cl)cc3)nc(N3C[C@H](N)C[C@H](N)C3)n2)C1 | 4 µM | 4 µg/mL (≈ 6.73 µM) | – | 16 µg/mL (≈ 26.9 µM) | ≤ 1 µg/mL | 71 µM
Cc1ccc(S(=O)(=O)N(Cc2ccccc2)c2ccc(Nc3nc(N4C[C@H](N)C[C@H](N)C4)nc(N4C[C@H](N)C[C@H](N)C4)n3)cc2O)cc1 | 4 µM | 4 µg/mL (≈ 5.94 µM) | – | 16 µg/mL (≈ 23.7 µM) | 16 µg/mL (≈ 23.7 µM) | 68 µM
NNc1nc(N2C[C@H](N)C[C@H](N)C2)nc(N2C[C@H](N)C[C@H](N)C2)n1 | 170 µM | – | – | – | – | –
N[C@@H]1C[C@H](N)CN(c2nc(Nc3ccccc3)nc(N3C[C@H](N)C[C@H](N)C3)n2)C1 | 7 µM | > 64 µg/mL | > 64 µg/mL | > 64 µg/mL | – | –
N[C@@H]1C[C@H](N)CN(c2nc(Nc3ccc(NC(=O)c4cccc(O)c4O)cc3)nc(N3C[C@H](N)C[C@H](N)C3)n2)C1 | 5 µM | 8 µg/mL (≈ 14.6 µM) | – | – | – | –
N[C@@H]1C[C@H](N)CN(c2nc(Cl)nc(N3C[C@H](N)C[C@H](N)C3)n2)C1 | 42 µM | – | – | – | – | –
N[C@@H]1C[C@H](N)CN(c2nc(Nc3ccc(NC(=O)C(=O)c4c[nH]c5ccccc45)c(O)c3)nc(N3C[C@H](N)C[C@H](N)C3)n2)C1 | 4 µM | 1 µg/mL (≈ 1.66 µM) | – | 16 µg/mL (≈ 26.6 µM) | ≤ 0.5 µg/mL | 92 µM
O=C(N[C@H](CO)[C@H](O)c1ccc([N+](=O)[O-])cc1)C(Cl)Cl [CHLORAMPHENICOL] | 1.5 µM | 4 µg/mL (≈ 12.4 µM) | – | 8 µg/mL (≈ 24.8 µM) | > 64 µg/mL | –
NC[C@H]1O[C@H](O[C@H]2[C@H](O)[C@@H](O[C@H]3O[C@H](CO)[C@@H](O)[C@H](N)[C@H]3O)[C@H](N)C[C@@H]2N)[C@H](O)[C@@H](O)[C@@H]1O [KANAMYCIN] | 0.4 µM | – | – | – | – | –
CN(C)[C@@H]1C(O)=C(C(N)=O)C(=O)[C@@]2(O)C(O)=C3C(=O)c4c(O)cccc4[C@@](C)(O)[C@H]3C[C@@H]12 [TETRACYCLINE] | 2.8 µM | – | – | – | – | –
